Reference: PubChem BioAssay (NCI)
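The compound was tested at five concentrations on cells cultured in 96-well plates, with a 48-hour exposure period. Abbreviation: GI50, concentration required for 50% inhibition of growth. TGI: concentration producing complete growth inhibition.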

Legend:
Assay in all cases: growth of human tumour cells (NCI), 48 h
786-0 renal = test system: 786-0 renal
A498 renal = test system: A498 renal
A549 NSCLC = test system: A549 NSCLC
ACHN renal = test system: ACHN renal
BT-549 breast = test system: BT-549 breast
CAKI-1 renal = test system: CAKI-1 renal
COLO 205 colon = test system: COLO 205 colon
DU-145 prostate = test system: DU-145 prostate
EKVX NSCLC = test system: EKVX NSCLC
HCC-2998 colon = test system: HCC-2998 colon
HCT-116 colon = test system: HCT-116 colon
HCT-15 colon = test system: HCT-15 colon
HL-60(TB) leukemia = test system: HL-60(TB) leukemia
HOP-62 NSCLC = test system: HOP-62 NSCLC
HOP-92 NSCLC = test system: HOP-92 NSCLC
HS 578T breast = test system: HS 578T breast
HT29 colon = test system: HT29 colon
IGROV1 ovarian = test system: IGROV1 ovarian
K-562 leukemia = test system: K-562 leukemia
KM12 colon = test system: KM12 colon
LOX IMVI melanoma = test system: LOX IMVI melanoma
M14 melanoma = test system: M14 melanoma
MALME-3M melanoma = test system: MALME-3M melanoma
MCF7 breast = test system: MCF7 breast
MDA-MB-231 breast = test system: MDA-MB-231 breast
MDA-MB-435 = test system: MDA-MB-435
MOLT-4 leukemia = test system: MOLT-4 leukemia
NCI-H226 lung = test system: NCI-H226 lung
NCI-H23 lung = test system: NCI-H23 lung
NCI-H460 lung = test system: NCI-H460 lung
NCI-H522 lung = test system: NCI-H522 lung
NCI/ADR-RES ovarian = test system: NCI/ADR-RES ovarian
OVCAR-3 ovarian = test system: OVCAR-3 ovarian
OVCAR-4 ovarian = test system: OVCAR-4 ovarian
OVCAR-5 ovarian = test system: OVCAR-5 ovarian
OVCAR-8 ovarian = test system: OVCAR-8 ovarian
PC-3 prostate = test system: PC-3 prostate
RPMI-8226 leukemia = test system: RPMI-8226 leukemia
RXF 393 renal = test system: RXF 393 renal
SF-268 CNS = test system: SF-268 CNS
SF-295 CNS = test system: SF-295 CNS
SF-539 CNS = test system: SF-539 CNS
SK-MEL-2 melanoma = test system: SK-MEL-2 melanoma
SK-MEL-28 melanoma = test system: SK-MEL-28 melanoma
SK-MEL-5 melanoma = test system: SK-MEL-5 melanoma
SK-OV-3 ovarian = test system: SK-OV-3 ovarian
SNB-19 CNS = test system: SNB-19 CNS
SNB-75 CNS = test system: SNB-75 CNS
SR leukemia = test system: SR leukemia
SW-620 colon = test system: SW-620 colon
TK-10 renal = test system: TK-10 renal
U251 CNS = test system: U251 CNS
UACC-257 melanoma = test system: UACC-257 melanoma
UACC-62 melanoma = test system: UACC-62 melanoma
UO-31 renal = test system: UO-31 renal
CCRF-CEM leukemia = test system: CCRF-CEM leukemia
T-47D breast = test system: T-47D breast

Cc1ccc(/C=C/c2c(C(=O)/C=C/c3ccc(Cl)cc3)c(C)nc3ccccc23)cc1
GI50 (786-0 renal): 1600 nM | TGI (786-0 renal): 3.2 µM | GI50 (A498 renal): 1770 nM | TGI (A498 renal): 3.28 µM | GI50 (A549 NSCLC): 2450 nM | TGI (A549 NSCLC): 6.85 µM | GI50 (ACHN renal): 1540 nM | TGI (ACHN renal): 2.88 µM | GI50 (BT-549 breast): 1400 nM | TGI (BT-549 breast): 2930 nM | GI50 (CAKI-1 renal): 1270 nM | TGI (CAKI-1 renal): 2740 nM | GI50 (COLO 205 colon): 2170 nM | TGI (COLO 205 colon): 5.46 µM | GI50 (DU-145 prostate): 1740 nM | TGI (DU-145 prostate): 3.27 µM | GI50 (EKVX NSCLC): 1860 nM | TGI (EKVX NSCLC): 4.53 µM | GI50 (HCC-2998 colon): 1490 nM | TGI (HCC-2998 colon): 2960 nM | GI50 (HCT-116 colon): 526 nM | TGI (HCT-116 colon): 2020 nM | GI50 (HCT-15 colon): 1450 nM | TGI (HCT-15 colon): 3.97 µM | GI50 (HL-60(TB) leukemia): 2120 nM | TGI (HL-60(TB) leukemia): 5.76 µM | GI50 (HOP-62 NSCLC): 2150 nM | TGI (HOP-62 NSCLC): 4.68 µM | GI50 (HOP-92 NSCLC): 1620 nM | TGI (HOP-92 NSCLC): 3.53 µM | GI50 (HS 578T breast): 2750 nM | TGI (HS 578T breast): 8.66 µM | GI50 (HT29 colon): 2050 nM | TGI (HT29 colon): 14.9 µM | GI50 (IGROV1 ovarian): 1030 nM | TGI (IGROV1 ovarian): 2380 nM | GI50 (K-562 leukemia): 2630 nM | TGI (K-562 leukemia): > 100 µM | GI50 (KM12 colon): 1870 nM | TGI (KM12 colon): 3.77 µM | GI50 (LOX IMVI melanoma): 1530 nM | TGI (LOX IMVI melanoma): 2870 nM | GI50 (M14 melanoma): 1640 nM | TGI (M14 melanoma): 3.4 µM | GI50 (MALME-3M melanoma): 1740 nM | TGI (MALME-3M melanoma): 3.17 µM | GI50 (MCF7 breast): 1580 nM | TGI (MCF7 breast): 4.95 µM | GI50 (MDA-MB-231 breast): 1770 nM | TGI (MDA-MB-231 breast): 3.68 µM | GI50 (MDA-MB-435): 2050 nM | TGI (MDA-MB-435): 4.22 µM | GI50 (MOLT-4 leukemia): 2180 nM | TGI (MOLT-4 leukemia): > 100 µM | GI50 (NCI-H226 lung): 1920 nM | TGI (NCI-H226 lung): 3.92 µM | GI50 (NCI-H23 lung): 1380 nM | TGI (NCI-H23 lung): 3.22 µM | GI50 (NCI-H460 lung): 1730 nM | TGI (NCI-H460 lung): 3.49 µM | GI50 (NCI-H522 lung): 1860 nM | TGI (NCI-H522 lung): 5.94 µM | GI50 (NCI/ADR-RES ovarian): 1990 nM | TGI (NCI/ADR-RES ovarian): 4.45 µM | GI50 (OVCAR-3 ovarian): 1840 nM | TGI (OVCAR-3 ovarian): 3.51 µM | GI50 (OVCAR-4 ovarian): 3.97 µM | TGI (OVCAR-4 ovarian): 17.9 µM | GI50 (OVCAR-5 ovarian): 2160 nM | TGI (OVCAR-5 ovarian): 5.86 µM | GI50 (OVCAR-8 ovarian): 2170 nM | TGI (OVCAR-8 ovarian): 6.46 µM | GI50 (PC-3 prostate): 2200 nM | TGI (PC-3 prostate): 6.42 µM | GI50 (RPMI-8226 leukemia): 2130 nM | TGI (RPMI-8226 leukemia): 5.95 µM | GI50 (RXF 393 renal): 1790 nM | TGI (RXF 393 renal): 3.45 µM | GI50 (SF-268 CNS): 2150 nM | TGI (SF-268 CNS): 5.85 µM | GI50 (SF-295 CNS): 1740 nM | TGI (SF-295 CNS): 3.23 µM | GI50 (SF-539 CNS): 1810 nM | TGI (SF-539 CNS): 3.3 µM | GI50 (SK-MEL-2 melanoma): 2010 nM | TGI (SK-MEL-2 melanoma): 4.96 µM | GI50 (SK-MEL-28 melanoma): 1840 nM | TGI (SK-MEL-28 melanoma): 3.41 µM | GI50 (SK-MEL-5 melanoma): 1620 nM | TGI (SK-MEL-5 melanoma): 3000 nM | GI50 (SK-OV-3 ovarian): 3.74 µM | TGI (SK-OV-3 ovarian): 15.7 µM | GI50 (SNB-19 CNS): 1750 nM | TGI (SNB-19 CNS): 3.28 µM | GI50 (SNB-75 CNS): 1510 nM | TGI (SNB-75 CNS): 3.24 µM | GI50 (SR leukemia): 1920 nM | TGI (SR leukemia): > 100 µM | GI50 (SW-620 colon): 1900 nM | TGI (SW-620 colon): 5.11 µM | GI50 (TK-10 renal): 2530 nM | TGI (TK-10 renal): 4.84 µM | GI50 (U251 CNS): 1700 nM | TGI (U251 CNS): 3.38 µM | GI50 (UACC-257 melanoma): 2150 nM | TGI (UACC-257 melanoma): 4.8 µM | GI50 (UACC-62 melanoma): 1750 nM | TGI (UACC-62 melanoma): 3.72 µM | GI50 (UO-31 renal): 1160 nM | TGI (UO-31 renal): 2380 nM

C[C@@H](Nc1nc(Nc2ccc(F)c(Cl)c2)nc2c(C3=CCNCC3)cccc12)C1CC1
GI50 (ACHN renal): 1810 nM | TGI (ACHN renal): 3.32 µM | GI50 (CAKI-1 renal): 1580 nM | TGI (CAKI-1 renal): 2990 nM | GI50 (CCRF-CEM leukemia): 2210 nM | TGI (CCRF-CEM leukemia): 5.54 µM | GI50 (DU-145 prostate): 1640 nM | TGI (DU-145 prostate): 3.04 µM | GI50 (HS 578T breast): 1990 nM | TGI (HS 578T breast): 4.82 µM | GI50 (MDA-MB-231 breast): 1720 nM | TGI (MDA-MB-231 breast): 3.28 µM | GI50 (NCI-H226 lung): 2310 nM | TGI (NCI-H226 lung): 5.03 µM | GI50 (OVCAR-5 ovarian): 1530 nM | TGI (OVCAR-5 ovarian): 3.25 µM | GI50 (SF-539 CNS): 1680 nM | TGI (SF-539 CNS): 3.17 µM | GI50 (T-47D breast): 1910 nM | TGI (T-47D breast): 4.38 µM | GI50 (UACC-62 melanoma): 1820 nM | TGI (UACC-62 melanoma): 3.36 µM
